Measurements taken from PMC3971658 (The Journal of General Physiology, 2014).
Marks after values point to notes of the source that are not given here. Where no end group is shown, it is not given here.

Assays:
Assay type in all cases: cell-based
[1] = test system: c-Src / human Cav2.3c channel and GABABR
[2] = test system: c-Src / human Cav2.1 channel and GABABR
[3] = test system: Human Cav2.3c (Y1761F); details: 50 µM
[4] = test system: Human Cav2.3d (Y1761F); details: 50 µM
[5] = test system: Human Cav2.1 (L1852T); details: read-out: IBa inhibition; 50 µM
[6] = test system: Human Cav2.1 (Q1856E); details: read-out: IBa inhibition; 50 µM
[7] = test system: Human Cav2.3d (Y1765F); details: read-out: IBa inhibition; 50 µM

pp60c-Src peptide: phosphorylated synthetic pp60c-Src peptide (521–533) (DYFTSTEPQYQPG; also: phosphorylated, site not given here; UniProt P12931 521-533, looked up, fragment)
effect of pp60c-Src peptide on c-Vc1.1 and baclofen inhibition of IBa [1]: The effect of K295R/Y527F c-Src was recapitulated | baclofen inhibition of IBa with wild-type c-Src overexpression or pp60c-Src peptide [2]: did not affect baclofen inhibition of IBa

NCC(CC(=O)O)c1ccc(Cl)cc1 (stereo not shown) [Baclofen, baclofen]
IBa inhibition [3]: 14.6 ± 1.8 (8) ^c % | IBa inhibition [4]: 21.9 ± 1.8 (11) ^c % | inhibition [5]: 50.6% | inhibition [6]: 47.9% | inhibition [7]: 28.9%
